Among the data in patent US10988477B2 (Merck Patent GmbH, priority 2018, dated 2021) are Ki and IC50 values, retold here.

In test [1] the target is GCN2 kinase (Homo sapiens, UniProt Q9P2K8). The experiment in a line: GCN2 enzyme inhibition assay (Transcreener ADP2 fluorescence polarization). Format: biochemical. The settings on record: 280 μM ATP. The method, boiled down:
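Human GCN2 (4 nM) preincubated 10 min with compound (0–8 μM) and 200 μM (RS)7 peptide in Tris-HCl pH 7.5, NaCl, MgCl2, DTT. Reaction started with 280 μM ATP, run 1 h at 25 °C. ADP detected by Transcreener fluorescence polarization. IC50 and Ki(app) fitted by tight-binding algorithm.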
A general note: In fluorescence polarisation assays a small probe gives low polarisation when free and higher when bound to something large.

Test [2] concerns the target intracellular GCN2 (phosphorylation of the GCN2 substrate eIF2α) (Homo sapiens, UniProt Q9P2K8). The experiment in a line: GCN2 cellular inhibition assay (AlphaScreen SureFire P-eIF2α Ser51, borrelidin-treated U2OS cells). In kind it is cell-based. The settings on record: biomarker assay, phosphorylated eIF2α Ser51 in borrelidin-treated U2OS cells. The method, boiled down:
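U2OS cells adhered overnight, then treated with compounds (4-fold serial dilutions from 40 μM final) plus borrelidin 10 μM final for 1 h at 37 °C. Lysate eIF2α Ser51 phosphorylation measured by AlphaScreen SureFire. Percent inhibition calculated relative to borrelidin-only wells.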

The mark [3] stands for this setting: compounds of Formula II, 4 nM GCN2 kinase.
The mark [4] stands for this setting: Enzyme activity for compounds of Formula IV, Ki(app), 25° C.

Where only a bound is given, the exact number is not on record here.

Sequence of intracellular GCN2 (phosphorylation of the GCN2 substrate eIF2α) (Q9P2K8 whole entry): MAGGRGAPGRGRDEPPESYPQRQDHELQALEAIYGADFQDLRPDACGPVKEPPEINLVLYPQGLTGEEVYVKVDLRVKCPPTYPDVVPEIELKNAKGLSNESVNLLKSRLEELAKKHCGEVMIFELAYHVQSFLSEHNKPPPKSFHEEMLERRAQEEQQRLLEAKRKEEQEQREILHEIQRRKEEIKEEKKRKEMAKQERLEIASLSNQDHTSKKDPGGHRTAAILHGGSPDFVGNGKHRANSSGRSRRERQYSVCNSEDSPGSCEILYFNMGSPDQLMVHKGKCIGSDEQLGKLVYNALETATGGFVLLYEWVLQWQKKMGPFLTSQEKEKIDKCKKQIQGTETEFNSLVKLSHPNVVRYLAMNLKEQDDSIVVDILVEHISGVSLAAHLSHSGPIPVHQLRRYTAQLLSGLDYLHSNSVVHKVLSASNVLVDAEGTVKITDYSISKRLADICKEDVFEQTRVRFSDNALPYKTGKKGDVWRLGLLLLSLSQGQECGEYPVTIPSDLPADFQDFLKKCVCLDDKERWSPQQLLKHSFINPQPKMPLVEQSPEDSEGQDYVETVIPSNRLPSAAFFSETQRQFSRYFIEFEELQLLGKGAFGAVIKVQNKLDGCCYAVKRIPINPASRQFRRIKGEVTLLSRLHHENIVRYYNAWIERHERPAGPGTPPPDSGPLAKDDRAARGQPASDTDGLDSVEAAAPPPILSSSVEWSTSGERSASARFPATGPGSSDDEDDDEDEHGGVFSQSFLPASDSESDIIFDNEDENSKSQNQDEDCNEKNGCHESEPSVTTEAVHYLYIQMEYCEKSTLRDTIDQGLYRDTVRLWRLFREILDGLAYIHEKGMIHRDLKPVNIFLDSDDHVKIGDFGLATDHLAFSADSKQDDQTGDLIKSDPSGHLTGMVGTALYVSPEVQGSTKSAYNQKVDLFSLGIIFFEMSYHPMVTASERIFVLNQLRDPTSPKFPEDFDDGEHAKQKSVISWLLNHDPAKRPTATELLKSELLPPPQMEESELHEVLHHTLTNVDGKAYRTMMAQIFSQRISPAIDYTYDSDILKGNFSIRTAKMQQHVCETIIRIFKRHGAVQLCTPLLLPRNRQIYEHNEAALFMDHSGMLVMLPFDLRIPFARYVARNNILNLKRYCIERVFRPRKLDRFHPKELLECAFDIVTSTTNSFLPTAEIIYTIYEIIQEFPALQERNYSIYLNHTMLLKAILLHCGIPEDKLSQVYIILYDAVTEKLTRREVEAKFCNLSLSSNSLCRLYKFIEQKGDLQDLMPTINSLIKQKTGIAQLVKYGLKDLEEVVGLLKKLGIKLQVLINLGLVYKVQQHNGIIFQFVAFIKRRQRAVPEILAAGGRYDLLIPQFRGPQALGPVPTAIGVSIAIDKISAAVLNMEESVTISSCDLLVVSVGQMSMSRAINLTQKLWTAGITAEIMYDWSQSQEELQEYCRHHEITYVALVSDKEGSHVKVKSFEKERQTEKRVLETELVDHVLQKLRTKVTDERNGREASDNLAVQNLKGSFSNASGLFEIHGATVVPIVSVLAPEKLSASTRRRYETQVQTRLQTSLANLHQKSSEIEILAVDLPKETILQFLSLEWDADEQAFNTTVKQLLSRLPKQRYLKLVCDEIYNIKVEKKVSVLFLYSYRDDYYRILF
Sequence of GCN2 kinase (Q9P2K8 whole entry): as above

The molecule `CS(=O)(=O)N1CCC12CCCN(c1cc(-c3cnc4ccc(C(F)F)nn34)ncn1)C2` (centres unmarked) [II-70, 6-(Difluoromethyl)-3-(6-(1-(methylsulfonyl)-1,6-diazaspiro[3.5]nonan-6-yl)pyrimidin-4-yl)imidazo[1,2-b]pyridazine] gave a Ki in test [1] (setting [3]) of 10 to 1000 nM. The molecule further registered an IC50 in test [2] (compounds of Formula II) of over 5000 nM.

With `C[C@H]1[C@@H](CNS(C)(=O)=O)CC(F)(F)CN1c1cc(-c2cnc3ccc(C(F)F)nn23)ncn1` (single isomer, unassigned) [II-361], in test [1] (setting [3]), the Ki is under 10 nM. In test [2] (compounds of Formula II), the IC50 was under 500 nM.

With `CC1CN(c2ccnc(-c3cnc4cnc(Cl)cn34)n2)C(C)C(c2c[nH]cn2)N1` (centres unmarked) [IV-349, 3-(4-(3-(1H-Imidazol-4-yl)-2,5-dimethylpiperazin-1-yl)pyrimidin-2-yl)-6-chloroimidazo[1,2-a]pyrazine], the Ki in test [1] (setting [4]) is 10 to 100 nM. In test [2] (compounds of Formula IV), this molecule registered an IC50 of 500 to 5000 nM.

As for `CC1CN(c2nccc(-c3cnc4cnc(C(F)(F)F)cn34)n2)CC(c2cn[nH]c2)O1` (single isomer, unassigned) [IV-200, 2-Methyl-6-(1H-pyrazol-4-yl)-4-(4-(6-(trifluoromethyl)imidazo[1,2-a]pyrazin-3-yl)pyrimidin-2-yl)morpholine], the Ki in test [1] (setting [4]) is under 10 nM. The same molecule gave an IC50 in test [2] (compounds of Formula IV) of 500 to 5000 nM.

`OC1CCC2CN(c3ccnc(-c4cnc5cnc(C(F)F)cn45)n3)CC2C1` (centres unmarked) [IV-116, 2-(2-(6-(Difluoromethyl)imidazo[1,2-a]pyrazin-3-yl)pyrimidin-4-yl)octahydro-1H-isoindol-5-ol] came in with a Ki in test [1] (setting [4]) of 100 to 1000 nM. The molecule further displayed an IC50 in test [2] (compounds of Formula IV) of over 5000 nM.

In turn, `Brc1cn2c(-c3nccc(N4CCCC(c5cn[nH]c5)C4)n3)cnc2cn1` (single isomer, unassigned) [IV-360, 3-(4-(3-(1H-Pyrazol-4-yl)piperidin-1-yl)pyrimidin-2-yl)-6-bromoimidazo[1,2-a]pyrazine] showed a Ki in test [1] (setting [4]) of under 10 nM. The IC50 in test [2] (compounds of Formula IV) was under 500 nM.

In turn, `CS(=O)(=O)NCC1CN(c2cc(-c3cnc4ccc(C(F)F)nn34)ncn2)CC(F)(F)C1` (centres unmarked) [II-258, N-((1-(6-(6-(Difluoromethyl)imidazo[1,2-b]pyridazin-3-yl)pyrimidin-4-yl)-5,5-difluoropiperidin-3-yl)methyl)methanesulfonamide] had a Ki in test [1] (setting [3]) of under 10 nM. In test [2] (compounds of Formula II), the IC50 is under 500 nM.

`CS(=O)(=O)CCN1CCC(c2cc(-c3cnc4ccc(C(F)F)nn34)ncn2)C1` (centres unmarked) [II-255, 6-(Difluoromethyl)-3-(6-(1-(2-(methylsulfonyl)ethyl)pyrrolidin-3-yl)pyrimidin-4-yl)imidazo[1,2-b]pyridazine] had a Ki in test [1] (setting [3]) of 10 to 1000 nM. Moreover, the IC50 in test [2] (compounds of Formula II) was over 5000 nM.

Consider `NCC(=O)Nc1cccc(-c2ccnc(-c3cnc4cnc(C(F)F)cn34)n2)c1` [IV-167, 2-Amino-N-(3-(2-(6-(difluoromethyl)imidazo[1,2-a]pyrazin-3-yl)pyrimidin-4-yl)phenyl)acetamide], for which the Ki in test [1] (setting [4]) was in the range of 100 to 1000 nM. Besides, the IC50 in test [2] (compounds of Formula IV) was over 5000 nM.

The molecule `CC1CN(c2cc(-c3cnc4ccc(C(F)F)nn34)ncn2)CC(CNS(C)(=O)=O)O1` (centres unmarked) [II-32, N-((4-(6-(6-(Difluoromethyl)imidazo[1,2-b]pyridazin-3-yl)pyrimidin-4-yl)-6-methylmorpholin-2-yl)methyl)methanesulfonamide] displayed a Ki in test [1] (setting [3]) of under 10 nM. The molecule also registered an IC50 in test [2] (compounds of Formula II) of under 500 nM.

In turn, `CS(=O)(=O)NCC1COCCN(c2cc(-c3cnc4ccc(C(F)F)nn34)ccn2)C1` (centres unmarked) [II-99, N-((4-(4-(6-(Difluoromethyl)imidazo[1,2-b]pyridazin-3-yl)pyridin-2-yl)-1,4-oxazepan-6-yl)methyl)methanesulfonamide] had a Ki in test [1] (setting [3]) of under 10 nM. The molecule also came in with an IC50 in test [2] (compounds of Formula II) of 500 to 5000 nM.

`Cc1cc(C2CCCN(c3ccnc(-c4cnc5cnc(C(F)F)cn45)n3)C2)n[nH]1` (centres unmarked) [IV-112, 6-(Difluoromethyl)-3-(4-(3-(5-methyl-1H-pyrazol-3-yl)piperidin-1-yl)pyrimidin-2-yl)imidazo[1,2-a]pyrazine] registered a Ki in test [1] (setting [4]) of 100 to 1000 nM. The molecule also displayed an IC50 in test [2] (compounds of Formula IV) of over 5000 nM.

With `CS(=N)(=O)CC1CCCN(c2cc(-c3cnc4ccc(C(F)F)nn34)ccn2)C1` (centres unmarked) [II-138, ((1-(4-(6-(Difluoromethyl)imidazo[1,2-b]pyridazin-3-yl)pyridin-2-yl)piperidin-3-yl)methyl)(imino)(methyl)-λ^6-sulfanone], the Ki in test [1] (setting [3]) was 10 to 1000 nM. Further, in test [2] (compounds of Formula II), the IC50 was 500 to 5000 nM.

`FC(F)c1ccc2ncc(-c3cc(N4CCCC(Cn5ccnn5)C4)ncn3)n2n1` (centres unmarked) [II-327, 3-(6-(3-((1H-1,2,3-Triazol-1-yl)methyl)piperidin-1-yl)pyrimidin-4-yl)-6-(difluoromethyl)imidazo[1,2-b]pyridazine] yielded a Ki in test [1] (setting [3]) of 10 to 1000 nM. Also, the IC50 in test [2] (compounds of Formula II) is over 5000 nM.

As to `CNc1ccc2ncc(-c3ccnc(N4CCCC(CNS(C)(=O)=O)C4)c3)n2n1` (centres unmarked) [II-179, N-((1-(4-(6-(Methylamino)imidazo[1,2-b]pyridazin-3-yl)pyridin-2-yl)piperidin-3-yl)methyl)methanesulfonamide], in test [1] (setting [3]), the Ki fell in the range of 10 to 1000 nM. The same molecule gave an IC50 in test [2] (compounds of Formula II) of 500 to 5000 nM.

The molecule `CC1C(CS(C)(=N)=O)OCCN1c1cc(-c2cnc3ccc(C(F)F)nn23)ncn1` (centres unmarked) [II-425, ((4-(6-(6-(Difluoromethyl)imidazo[1,2-b]pyridazin-3-yl)pyrimidin-4-yl)-3-methylmorpholin-2-yl)methyl)(imino)(methyl)-λ^6-sulfanone] came in with a Ki in test [1] (setting [3]) of 10 to 1000 nM. The molecule also showed an IC50 in test [2] (compounds of Formula II) of 500 to 5000 nM.

`NC(=O)[C@H]1CCCN(c2ccnc(-c3cnc4cnc(C(F)(F)F)cn34)n2)C1` [IV-60, (S)-1-(2-(6-(Trifluoromethyl)imidazo[1,2-a]pyrazin-3-yl)pyrimidin-4-yl)piperidine-3-carboxamide] gave a Ki in test [1] (setting [4]) of under 10 nM. The same molecule had an IC50 in test [2] (compounds of Formula IV) of 500 to 5000 nM.

In the case of `Brc1cn2c(-c3nccc(N4CCNC(c5cn[nH]c5)C4)n3)cnc2cn1` (centres unmarked) [IV-371, 3-(4-(3-(1H-Pyrazol-4-yl)piperazin-1-yl)pyrimidin-2-yl)-6-bromoimidazo[1,2-a]pyrazine], the Ki in test [1] (setting [4]) was in the range of 10 to 100 nM. For the same molecule, the IC50 in test [2] (compounds of Formula IV) lay in the range of 500 to 5000 nM.

In test [1] (setting [3]), `CNS(=O)(=O)C1CCCN(c2cc(-c3cnc4ccc(C(F)F)nn34)ncn2)C1` (centres unmarked) [II-480, 1-(6-(6-(Difluoromethyl)imidazo[1,2-b]pyridazin-3-yl)pyrimidin-4-yl)-N-methylpiperidine-3-sulfonamide] returned a Ki of 10 to 1000 nM. The IC50 in test [2] (compounds of Formula II) is over 5000 nM.

Turning to `CC1CN(c2ccnc(-c3cnc4cnc(C(F)(F)F)cn34)n2)C(C)C(c2cnc[nH]2)N1` (single isomer, unassigned) [IV-538, 3-(4-(3-(1H-Imidazol-5-yl)-2,5-dimethylpiperazin-1-yl)pyrimidin-2-yl)-6-(trifluoromethyl)imidazo[1,2-a]pyrazine], in test [1] (setting [4]), the Ki is under 10 nM. Besides, in test [2] (compounds of Formula IV), the IC50 fell in the range of 500 to 5000 nM.

For `FC(F)(F)c1ccc2ncc(-c3ccnc(N4CCOC(c5cn[nH]c5)C4)c3)n2n1` (centres unmarked) [II-225, 2-(1H-Pyrazol-4-yl)-4-(4-(6-(trifluoromethyl)imidazo[1,2-b]pyridazin-3-yl)pyridin-2-yl)morpholine], the Ki in test [1] (setting [3]) is under 10 nM. This molecule also yielded an IC50 in test [2] (compounds of Formula II) of under 500 nM.

In the case of `FC(F)c1cn2c(-c3nccc(N4CCC5(CCC5)C4)n3)cnc2cn1` [IV-75, 3-[4-(6-Azaspiro[3.4]octan-6-yl)pyrimidin-2-yl]-6-(difluoromethyl)imidazo[1,2-a]pyrazine], the Ki in test [1] (setting [4]) fell in the range of 100 to 1000 nM. The IC50 in test [2] (compounds of Formula IV) is over 5000 nM.

The term IC50 denotes the concentration at which inhibition is half-maximal. Low values mean higher potency, high ones lower potency.
